Test results: patent US5597832A (Abbott Laboratories, priority 1994, dated 1997)
Where a name gives a salt, the structure may show the parent alone. Read-outs that look alike come from different tables or passages of the source.

Experiments:
[1] = biological target: dopamine D-1 receptor (Rattus norvegicus, UniProt P18901); conditions: read-out: D-1 Ki
[2] = biological target: T1, dopamine D-2 receptor (Rattus norvegicus, UniProt P61169); assay: D-2 receptor competitive binding, [3H]-spiroperidol, homogenized rat caudate; conditions: read-out: D-2 Ki
T1 construct: Homogenized rat caudate was the source of the D-2 receptors; from tissue; host or cells: rat caudate homogenate
T1 sequence (P61169 whole entry): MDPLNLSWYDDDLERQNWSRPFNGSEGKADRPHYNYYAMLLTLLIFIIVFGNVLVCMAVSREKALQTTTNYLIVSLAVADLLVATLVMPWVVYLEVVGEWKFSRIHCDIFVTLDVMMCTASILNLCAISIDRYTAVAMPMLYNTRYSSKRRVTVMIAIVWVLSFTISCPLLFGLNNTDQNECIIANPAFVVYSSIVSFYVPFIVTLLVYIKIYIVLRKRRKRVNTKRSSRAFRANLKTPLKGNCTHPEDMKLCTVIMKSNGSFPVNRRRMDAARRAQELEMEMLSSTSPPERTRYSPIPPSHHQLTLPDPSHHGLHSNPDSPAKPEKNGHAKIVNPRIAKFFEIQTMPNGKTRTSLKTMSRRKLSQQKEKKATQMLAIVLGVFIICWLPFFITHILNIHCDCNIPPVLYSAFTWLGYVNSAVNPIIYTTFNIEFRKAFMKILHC

[3] = test system: rats; conditions: literature; cited from earlier work
[4] = test system: schizophrenia; conditions: literature, cited from earlier work; for antipsychotic effects: low doses
[5] = test system: dopamine receptors; conditions: literature; cited from earlier work
[6] = test system: Parkinson's disease; conditions: alone, some patients; cited from earlier work
[7] = test system: D-1 receptor; assay: Adenylate cyclase assay (agonist activity, cAMP); format: biochemical, goldfish retina or rat striatum
[8] = test system: striatal dopamine receptors; assay: animal or person; format: in vivo; conditions: Rattus norvegicus, sc, read-out: EC50, rotation behavior

Chain of dopamine D-1 receptor (P18901 whole entry): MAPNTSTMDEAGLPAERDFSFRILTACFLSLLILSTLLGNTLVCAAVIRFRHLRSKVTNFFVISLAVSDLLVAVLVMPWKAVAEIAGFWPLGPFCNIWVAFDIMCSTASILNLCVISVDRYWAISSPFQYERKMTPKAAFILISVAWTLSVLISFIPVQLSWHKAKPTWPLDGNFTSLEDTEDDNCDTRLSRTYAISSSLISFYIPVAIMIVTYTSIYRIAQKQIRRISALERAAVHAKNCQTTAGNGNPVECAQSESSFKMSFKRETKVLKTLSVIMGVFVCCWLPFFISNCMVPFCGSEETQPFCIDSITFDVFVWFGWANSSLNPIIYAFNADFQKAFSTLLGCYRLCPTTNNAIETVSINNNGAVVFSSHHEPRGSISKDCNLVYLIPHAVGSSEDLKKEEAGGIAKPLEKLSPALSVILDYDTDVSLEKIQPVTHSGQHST

| Compound | Ki ([2]; rat caudate, [3H]-spiroperidol) | Ki [1] | Intrinsic Activity (%) [7] | ED50 [8] | EC50 [7] | other results |
| --- | --- | --- | --- | --- | --- | --- |
| Oc1cc2c(cc1O)C1c3cc(C45CC6CC(CC(C6)C4)C5)sc3CNC1CC2 (stereo not shown) [Example 47, 2-(Adamantyl)-4,5,5a,6,7,11b-hexahydro-3-thia-5-aza-cyclopent-1-ena[c]phenanthrene-9,10-diol hydrobromide] | > 5000 nM |  |  |  |  | Ki ([1]; rat caudate, [125I]SCH-23982): > 10000 nM |
| Oc1cc2c(cc1O)C(c1ccccc1)CNCC2 (stereo not shown) [SKF 38393] |  |  |  |  |  | food intake [3]: decrease food intake by rats; effect on side-effects of haloperidol ([4]; used in conjunction with haloperidol): ameliorate the undesired side-effects of the haloperidol |
| CN1CCc2cccc3c2[C@H]1Cc1ccc(O)c(O)c1-3 [apomorphine] |  |  |  |  |  | antipsychotic effects [4]: produce antipsychotic effects |
| Oc1ccc2c(c1O)CCC1NCc3ccccc3C21 (stereo not shown) |  |  |  |  |  | dopamine agonist activity [5]: inactive at dopamine receptors |
| CC(C)C[C@H]1C(=O)N2CCC[C@H]2[C@]2(O)O[C@](NC(=O)[C@@H]3C=C4c5cccc6[nH]c(Br)c(c56)C[C@H]4N(C)C3)(C(C)C)C(=O)N12 [bromocriptine] |  |  |  |  |  | relief of Parkinson's disease symptoms [6]: relieve Parkinson's disease symptoms in some patients; antipsychotic effects [4]: produce antipsychotic effects |
| Cc1sc2c(c1C)CN[C@H]1CCc3cc(O)c(O)cc3[C@H]21 (relative stereo) [Example 21, trans-2,3-dimethyl-4,5,5a,6,7,11b-hexahydro-1-thia-5-aza-cyclopent-2-ena[c]phenanthrene-9,10-diol hydrobromide] |  | 15 nM | 95% |  |  | Ki [2]: 66 nM; EC50 ([7]; goldfish retina or rat striatum homogenate): 182 nM |
| Cc1nc2c(o1)[C@@H]1c3cc(O)c(O)cc3CC[C@H]1NC2 (relative stereo) [Example 51, trans-2-Methyl-4,5,5a,6,7,11b-hexahydro-1-oxa-3,5-diaza-cyclopent-2-ena[c]phenanthrene-9,10-diol] | 382 nM | 11 nM | 100% | 0.33 µmol/kg | 65 nM |  |
| CC(C)c1nc2c(o1)[C@@H]1c3cc(O)c(O)cc3CC[C@H]1NC2 (relative stereo) [Example 50, trans-2-isopropyl-4,5,5a,6,7,11b-hexahydro-1-oxa-3,5-diaza-cyclopent-2-ena[c]phenanthrene-9,10-diol dihydrobromide] | 365 nM | 12 nM | 108% | > 1 µmol/kg | 81 nM |  |
| Oc1cc2c(cc1O)C1c3ccccc3CNC1CC2 (stereo not shown) [dihydrexidine] |  |  |  |  |  | dopamine agonist activity [5]: active as a dopamine agonist |
| CCc1cc2c(o1)CN[C@@H]1CCc3cc(O)c(O)cc3[C@@H]21 (relative stereo) [Example 40, trans-2-Ethyl-4,5,5a,6,7,11b-hexahydro-3-oxa-5-aza-cyclopent-1-ena[c]phenanthrene-9,10-diol hydrochloride] | 480 nM | 15 nM | 70% | 0.12 µmol/kg | 37 nM |  |
